Results reported in ChEMBL document CHEMBL3813676, “2-Benzoyl-6-benzylidenecyclohexanone analogs as potent dual inhibitors of acetylcholinesterase and butyrylcholinesterase” (Bioorg Med Chem, 2016).
Calls of active or inactive are those of the source. The rule behind the calls is not given here.

Key:
[1] = biological target: Acetylcholinesterase (Electrophorus electricus) (UniProt O42275); assay: Inhibition of electric eel AChE preincubated for 15 mins at 10 uM followed by addition of acetylthiocholine iodide as substrate measured after 30 mins by Ellman's microplate assay
[2] = biological target: Cholinesterase (Equus caballus) (UniProt P81908); assay: Inhibition of equine serum BChE preincubated for 15 mins at 10 uM followed by addition of S-butyrylthiocholine iodide as substrate measured after 30 mins by Ellman's microplate assay
Acetylcholinesterase [3] = biological target: T1, Acetylcholinesterase (Electrophorus electricus, UniProt O42275)
Description: Inhibition of electric eel AChE preincubated for 15 mins followed by addition of acetylthiocholine iodide as substrate measured after 30 mins by Ellman's microplate assay

Cholinesterase [4] = biological target: T2, Cholinesterase (Equus caballus, UniProt P81908); assay: Mixed type inhibition of equine serum BChE preincubated for 15 mins followed by addition of S-butyrylthiocholine iodide as substrate measured after 30 mins by Lineweaver-Burk double reciprocal plot analysis
Cholinesterase [5] = biological target: T2, Cholinesterase
Description: Inhibition of equine serum BChE preincubated for 15 mins followed by addition of S-butyrylthiocholine iodide as substrate measured after 30 mins by Ellman's microplate assay

Acetylcholinesterase [6] = biological target: T1, Acetylcholinesterase; assay: Mixed type inhibition of electric eel AChE preincubated for 15 mins followed by addition of acetylthiocholine iodide as substrate measured after 30 mins by Lineweaver-Burk double reciprocal plot analysis

T1 sequence (O42275 whole entry): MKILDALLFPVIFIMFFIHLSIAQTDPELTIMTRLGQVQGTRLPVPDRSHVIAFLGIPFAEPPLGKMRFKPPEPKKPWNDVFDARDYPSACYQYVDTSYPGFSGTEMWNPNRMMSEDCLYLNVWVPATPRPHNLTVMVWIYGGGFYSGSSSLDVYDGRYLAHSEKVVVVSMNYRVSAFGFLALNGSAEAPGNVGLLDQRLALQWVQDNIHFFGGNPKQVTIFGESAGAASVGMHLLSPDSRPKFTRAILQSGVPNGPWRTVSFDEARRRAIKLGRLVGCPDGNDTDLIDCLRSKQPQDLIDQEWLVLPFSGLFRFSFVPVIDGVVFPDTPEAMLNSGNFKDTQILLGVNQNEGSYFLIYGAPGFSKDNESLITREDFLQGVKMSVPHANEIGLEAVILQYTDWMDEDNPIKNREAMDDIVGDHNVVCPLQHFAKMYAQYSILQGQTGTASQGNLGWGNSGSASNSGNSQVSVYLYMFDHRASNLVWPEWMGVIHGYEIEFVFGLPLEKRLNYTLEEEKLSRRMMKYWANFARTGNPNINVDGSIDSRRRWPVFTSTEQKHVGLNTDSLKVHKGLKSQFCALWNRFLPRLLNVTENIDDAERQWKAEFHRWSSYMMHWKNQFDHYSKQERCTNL
Cholinesterase (Equus caballus), sequence (P81908 whole entry): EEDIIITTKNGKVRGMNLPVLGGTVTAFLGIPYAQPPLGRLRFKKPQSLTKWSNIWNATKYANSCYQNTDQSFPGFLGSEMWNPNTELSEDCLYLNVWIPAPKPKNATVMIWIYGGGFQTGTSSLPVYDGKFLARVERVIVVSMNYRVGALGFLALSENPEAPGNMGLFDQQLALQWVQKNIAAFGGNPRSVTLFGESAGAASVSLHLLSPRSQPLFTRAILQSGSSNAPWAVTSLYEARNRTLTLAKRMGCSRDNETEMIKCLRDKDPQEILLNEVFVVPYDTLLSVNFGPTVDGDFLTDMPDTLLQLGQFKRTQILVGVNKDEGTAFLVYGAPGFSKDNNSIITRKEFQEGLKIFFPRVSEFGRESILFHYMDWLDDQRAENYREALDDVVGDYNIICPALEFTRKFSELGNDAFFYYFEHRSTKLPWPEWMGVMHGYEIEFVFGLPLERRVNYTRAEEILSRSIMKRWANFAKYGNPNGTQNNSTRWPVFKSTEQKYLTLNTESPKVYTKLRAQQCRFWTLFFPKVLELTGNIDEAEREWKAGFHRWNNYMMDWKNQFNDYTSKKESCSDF
T2 sequence (P81908 whole entry): as above
Acetylcholinesterase (Electrophorus electricus), sequence (O42275 24-633 limits assumed): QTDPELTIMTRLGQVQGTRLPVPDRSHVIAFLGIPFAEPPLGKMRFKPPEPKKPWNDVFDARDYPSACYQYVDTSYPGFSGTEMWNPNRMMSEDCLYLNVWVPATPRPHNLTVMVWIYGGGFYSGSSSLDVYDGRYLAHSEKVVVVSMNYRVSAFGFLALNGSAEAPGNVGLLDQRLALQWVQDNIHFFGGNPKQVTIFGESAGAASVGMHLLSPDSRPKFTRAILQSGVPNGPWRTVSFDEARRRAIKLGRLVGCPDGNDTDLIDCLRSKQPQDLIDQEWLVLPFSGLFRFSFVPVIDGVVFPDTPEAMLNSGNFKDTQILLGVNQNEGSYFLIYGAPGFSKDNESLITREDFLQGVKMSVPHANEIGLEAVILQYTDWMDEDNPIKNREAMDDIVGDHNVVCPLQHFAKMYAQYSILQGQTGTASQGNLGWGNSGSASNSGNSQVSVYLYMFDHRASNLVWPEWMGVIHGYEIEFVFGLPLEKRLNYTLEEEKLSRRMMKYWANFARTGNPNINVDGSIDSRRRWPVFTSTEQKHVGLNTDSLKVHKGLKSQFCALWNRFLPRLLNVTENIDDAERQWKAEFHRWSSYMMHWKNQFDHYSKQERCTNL

Row | Compound | inhibition [1] | inhibition [2] | IC50 (Acetylcholinesterase [3]) [µM] | Ki (Cholinesterase [4]) [µM] | IC50 (Cholinesterase [5]) [µM] | Ki (Acetylcholinesterase [6]) [µM]
1 | COc1ccc(OC)c(/C=C2\CCCC(C(=O)c3ccccc3)=C2O)c1 | inactive | inactive | – | – | – | –
2 | O=C(C1=C(O)/C(=C/c2ccccc2Br)CCC1)c1ccccc1 | Active | inactive | 8.4 | – | – | –
3 | Cc1ccc(/C=C2\CCCC(C(=O)c3ccccc3)=C2O)s1 | Active | inactive | 5.9 | – | – | –
4 | O=C(C1=C(O)/C(=C/c2ccccc2)CCC1)c1ccccc1 | inactive | inactive | – | – | – | –
5 | COc1cc(/C=C2\CCCC(C(=O)c3ccccc3)=C2O)ccc1O | inactive | inactive | – | – | – | –
6 | COc1ccc(/C=C2\CCCC(C(=O)c3ccccc3)=C2O)c(OC)c1OC | inactive | inactive | – | – | – | –
7 | O=C(C1=C(O)/C(=C/c2cccc(OCCN3CCCC3)c2)CCC1)c1ccccc1 | Active | Active | 3.5 | 0.2 | 0.6 | –
8 | COc1cccc(/C=C2\CCCC(C(=O)c3ccccc3)=C2O)c1OC | inactive | inactive | – | – | – | –
9 | O=C(C1=C(O)/C(=C/c2ccc(Cl)cc2)CCC1)c1ccccc1 | Active | inactive | 7.6 | – | – | –
10 | COc1ccc(/C=C2\CCCC(C(=O)c3ccccc3)=C2O)cc1 | inactive | inactive | – | – | – | –
11 | O=C(C1=C(O)/C(=C/c2cccc3ccccc23)CCC1)c1ccccc1 | Active | inactive | 7.6 | – | – | –
12 | O=C(C1=C(O)/C(=C/c2ccc(Cc3ccccc3)cc2)CCC1)c1ccccc1 | Active | inactive | 8.4 | – | – | –
13 | O=C(C1=C(O)/C(=C/c2ccccc2Cl)CCC1)c1ccccc1 | inactive | inactive | 8.2 | – | – | –
14 | Cc1cccc(/C=C2\CCCC(C(=O)c3ccccc3)=C2O)c1 | Active | inactive | 8.6 | – | – | –
15 | O=C(C1=C(O)/C(=C/c2ccc(O)cc2)CCC1)c1ccccc1 | inactive | inactive | – | – | – | –
16 | O=C(C1=C(O)/C(=C/c2cccc(F)c2)CCC1)c1ccccc1 | Active | inactive | 9.7 | – | – | –
17 | O=C(C1=C(O)/C(=C/c2ccc(F)cc2)CCC1)c1ccccc1 | Active | inactive | 6.6 | – | – | –
18 | O=C(C1=C(O)/C(=C/c2ccc(OCCN3CCCC3)cc2)CCC1)c1ccccc1 | Active | Active | 2 | – | 2.3 | –
19 | COc1ccc(/C=C2\CCCC(C(=O)c3ccccc3)=C2O)cc1O | inactive | inactive | – | – | – | –
20 | O=C(C1=C(O)/C(=C/c2ccc(Br)c(Br)c2)CCC1)c1ccccc1 | Active | inactive | 9 | – | – | –
21 | COc1cccc(/C=C2\CCCC(C(=O)c3ccccc3)=C2O)c1 | Active | inactive | 7.4 | – | – | –

Row | Compound | inhibition [1] | inhibition [2] | IC50 (Acetylcholinesterase [3]) [µM] | Ki (Cholinesterase [4]) [µM] | IC50 (Cholinesterase [5]) [µM] | Ki (Acetylcholinesterase [6]) [µM]
22 | COc1ccc(/C=C2\CCCC(C(=O)c3ccccc3)=C2O)cc1OC | inactive | inactive | – | – | – | –
23 | O=C(C1=C(O)/C(=C/c2ccccc2F)CCC1)c1ccccc1 | Active | inactive | 6.6 | – | – | –
24 | O=C(C1=C(O)/C(=C/c2ccc(Br)cc2)CCC1)c1ccccc1 | Active | inactive | 8.7 | – | – | –
25 | COc1ccccc1/C=C1\CCCC(C(=O)c2ccccc2)=C1O | inactive | inactive | – | – | – | –
26 | O=C(C1=C(O)/C(=C/c2cccs2)CCC1)c1ccccc1 | Active | inactive | 5.1 | – | – | –
27 | O=C(C1=C(O)/C(=C/c2cccc(Cl)c2)CCC1)c1ccccc1 | inactive | inactive | – | – | – | –
28 | Cc1ccc(/C=C2\CCCC(C(=O)c3ccccc3)=C2O)cc1 | Active | inactive | 8.5 | – | – | –
29 | O=C(C1=C(O)/C(=C/c2cccc(OCCN3CCCCC3)c2)CCC1)c1ccccc1 | Active | Active | 3.1 | – | 1.4 | –
30 | O=C(C1=C(O)/C(=C/c2ccc(O)c(Br)c2)CCC1)c1ccccc1 | inactive | Active | – | – | 4.7 | –
31 | O=C(C1=C(O)/C(=C/c2ccc(Cl)c(Cl)c2)CCC1)c1ccccc1 | Active | inactive | 9.8 | – | – | –
32 | O=C(C1=C(O)/C(=C/c2ccc(O)c(Cl)c2)CCC1)c1ccccc1 | inactive | Active | – | – | 10.6 | –
33 | O=C(C1=C(O)/C(=C/c2ccc(OCCN3CCCCC3)cc2)CCC1)c1ccccc1 | Active | Active | 1.6 | – | 2.7 | 1.9
34 | O=C(C1=C(O)/C(=C/c2ccc(O)c(O)c2)CCC1)c1ccccc1 | inactive | Active | – | – | 6.5 | –
35 | O=C(C1=C(O)/C(=C/c2cccc(Cl)c2Cl)CCC1)c1ccccc1 | Active | inactive | 5.9 | – | – | –
36 | O=C(C1=C(O)/C(=C/c2ccc3ccccc3c2)CCC1)c1ccccc1 | Active | inactive | 8.3 | – | – | –
37 | O=C(C1=C(O)/C(=C/c2ccc(Cl)cc2Cl)CCC1)c1ccccc1 | Active | inactive | 5.4 | – | – | –
38 | O=C(C1=C(O)/C(=C/c2ccc(F)c(F)c2)CCC1)c1ccccc1 | Active | inactive | 8.7 | – | – | –
39 | O=C(C1=C(O)/C(=C/c2cccc(Cc3ccccc3)c2)CCC1)c1ccccc1 | Active | inactive | 7.8 | – | – | –
40 | COc1cc(/C=C2\CCCC(C(=O)c3ccccc3)=C2O)cc(OC)c1OC | inactive | inactive | – | – | – | –
41 | O=C(C1=C(O)/C(=C/c2cccc(O)c2)CCC1)c1ccccc1 | inactive | inactive | – | – | – | –
